Assay results from US20080275058A1, “N-Substituted-1H-Quinoline-2,4-Diones, Preparation Method Thereof, And Pharmaceutical Composition Containing The Same” (KOREA RESEARCH INSTITUTE OF CHEMICAL TECHNOLOGY, priority 2005, published 2008).

Key:
[1] = target: T1, 5-HT7 (Homo sapiens, UniProt P34969); experiment: Radioligand binding, 5-HT7 ([3H]LSD); settings: Table 4; [3H]LSD 3 nM; read-out: Binding affinity, IC50 (nM) 5-HT7
T1 construct: purchased Euroscreen/BioSignal Packard Inc

[2] = target: T2, hD4.2 receptor (Homo sapiens, UniProt P21917, DEL265-296); experiment: Radioligand binding, dopamine D4 ([3H]YM-09151-2); settings: Table 4; [3H]YM-09151-2 0.06 nM; read-out: Binding affinity, IC50 (nM) D4
T2 construct: purchased BioSignal Packard Inc., Montreal, Canada
T2 sequence (P21917 with tags, fused parts or gaps DEL265-296): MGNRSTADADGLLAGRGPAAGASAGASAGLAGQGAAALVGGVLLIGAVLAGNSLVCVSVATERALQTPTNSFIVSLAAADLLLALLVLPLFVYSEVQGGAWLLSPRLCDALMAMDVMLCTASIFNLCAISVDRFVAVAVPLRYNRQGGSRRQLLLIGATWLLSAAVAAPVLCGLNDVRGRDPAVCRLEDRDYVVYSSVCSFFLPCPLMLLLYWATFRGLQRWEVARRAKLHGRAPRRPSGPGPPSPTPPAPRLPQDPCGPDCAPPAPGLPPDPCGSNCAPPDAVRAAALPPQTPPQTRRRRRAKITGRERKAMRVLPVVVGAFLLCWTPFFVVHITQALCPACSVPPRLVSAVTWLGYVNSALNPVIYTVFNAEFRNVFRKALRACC
Method in brief: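 Membrane competition binding with [3H]spiperone (1 nM) for hD2L and hD3, or [3H]YM-09151-2 (0.06 nM) for hD4.2, each in receptor-specific Tris-HCl pH 7.4 buffer containing Mg2+/EDTA (D3 and D4 also with K+, Ca2+; D3 with 120 mM NaCl). Compounds were tested at 7-8 concentrations in duplicate, and IC50 was derived by nonlinear regression across three assays.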

[3] = target: T3, 5-HT2c (Homo sapiens, UniProt P28335); experiment: Radioligand binding, 5-HT2c ([3H]Mesulergine); settings: Table 4; [3H]Mesulergine 1 nM; read-out: Binding affinity, IC50 (nM) 5-HT2c
T3 construct: purchased Euroscreen/BioSignal Packard Inc
T3 sequence (P28335 33-458): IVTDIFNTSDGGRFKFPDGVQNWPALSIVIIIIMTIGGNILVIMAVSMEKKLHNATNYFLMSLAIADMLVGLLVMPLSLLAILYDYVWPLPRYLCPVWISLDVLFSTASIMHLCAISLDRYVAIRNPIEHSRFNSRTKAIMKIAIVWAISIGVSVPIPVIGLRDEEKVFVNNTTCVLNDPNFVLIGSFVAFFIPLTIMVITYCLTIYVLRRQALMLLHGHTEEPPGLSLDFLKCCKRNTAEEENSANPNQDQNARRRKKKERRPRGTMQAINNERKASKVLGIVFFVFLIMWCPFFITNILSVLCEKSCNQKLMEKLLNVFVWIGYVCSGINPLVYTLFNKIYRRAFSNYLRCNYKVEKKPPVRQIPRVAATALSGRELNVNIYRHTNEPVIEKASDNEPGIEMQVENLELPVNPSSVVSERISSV

[4] = test system: HeLa cells transfected with the human 5-HT6 receptor; experiment: Cytotoxicity in HeLa cells transfected with the human 5-HT6 receptor; assay type: cell-based; settings: at the concentrations tested

T1 sequence (P34969 whole entry): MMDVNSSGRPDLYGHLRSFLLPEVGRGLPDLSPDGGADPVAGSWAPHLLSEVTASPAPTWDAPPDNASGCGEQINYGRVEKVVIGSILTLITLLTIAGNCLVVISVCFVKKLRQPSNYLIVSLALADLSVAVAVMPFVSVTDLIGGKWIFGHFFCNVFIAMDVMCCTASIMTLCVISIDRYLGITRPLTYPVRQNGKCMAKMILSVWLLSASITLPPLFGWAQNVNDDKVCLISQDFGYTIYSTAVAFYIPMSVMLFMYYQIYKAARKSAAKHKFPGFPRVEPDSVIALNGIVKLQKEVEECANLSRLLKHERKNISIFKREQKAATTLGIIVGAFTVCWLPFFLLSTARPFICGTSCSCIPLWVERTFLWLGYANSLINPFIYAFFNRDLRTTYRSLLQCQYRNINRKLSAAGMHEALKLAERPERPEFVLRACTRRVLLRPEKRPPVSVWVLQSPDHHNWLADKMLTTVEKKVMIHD

SMILES | IC50 [1] | IC50 [2] | IC50 [3] | cytotoxicity [4]
COc1ccc(C2(C)C(=O)c3c(N4CCNCC4)cc(Cl)cc3N(Cc3ccccc3)C2=O)cc1 (racemic) [Example 13, 1-Benzyl-7-chloro-3-(4-methoxy-phenyl)-3-methyl-5-piperazin-1-yl-1H-quinoline-2,4-dione] | 9000 nM | > 10000 nM | 437 nM | 
CC1(c2ccc(O)cc2)C(=O)c2c(N3CCNCC3)cc(Cl)cc2N(Cc2ccccc2)C1=O (racemic) [Example 14, 1-Benzyl-7-chloro-3-(4-hydroxy-phenyl)-3-methyl-5-piperazin-1-yl-1H-quinoline-2,4-dione] | 3570 nM | > 10000 nM | > 10000 nM | did not show any cytotoxicity
